# Experimental data as given in patent US11261230B2, “Synthetic somatostatin receptor ligands” (TEL HASHOMER MEDICAL RESEARCH INFRASTRUCTURE AND SERVICES …, priority 2014, dated 2022).
# *1 amine or outer side, *2 acyl side, *3 side chain or, on linkers, in order; H or OH if unused. Where a SMILES comes first, the peptide text is derived from it. Bridges are numbered along the chain shown (N, C = ends). [ ]: non-standard residue; d: D form. The star is where a group is joined. FITC = O=C1OC2(c3ccc(O)cc3Oc3cc(O)ccc32)c2ccc(NC(=S)*)cc21; N(2-mercaptoethyl)Gly = O=C(CN(CCS[*:3])[*:1])[*:2]; GABA = NCCCC(=O)O
# Assays:
# SSTR1-SSTR5 = conditions: background statement; cited from earlier work
# human SSTR5 = molecular target: T1, human SSTR5 (Homo sapiens, UniProt P35346); assay: Binding to transfected HEK cells expressing a single SSTRx subtype, FACS and fluorescence microscopy
# T1 construct: expressed in transfected cells; host or cells: HEK-293, transient transfection, pcDNA 3.1
# T1 sequence (P35346 whole entry): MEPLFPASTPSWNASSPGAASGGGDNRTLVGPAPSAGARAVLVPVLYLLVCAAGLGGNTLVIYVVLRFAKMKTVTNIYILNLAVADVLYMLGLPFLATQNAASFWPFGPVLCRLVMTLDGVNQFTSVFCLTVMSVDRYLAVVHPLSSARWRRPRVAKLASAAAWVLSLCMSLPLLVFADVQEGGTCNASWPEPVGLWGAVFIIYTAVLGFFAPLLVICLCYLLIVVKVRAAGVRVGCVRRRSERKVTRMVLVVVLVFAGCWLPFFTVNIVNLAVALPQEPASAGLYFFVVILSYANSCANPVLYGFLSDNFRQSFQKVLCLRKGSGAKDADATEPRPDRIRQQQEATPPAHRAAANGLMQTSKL
# Experimental: (§1) The affinity of compounds 1-16 to each of the five SSTRx was tested using an in vitro model of transfected cell lines (HEK—human embryonic kidney), each expressing a single human SSTRx subtype. Biological activity assessment of the compounds to define a specific affinity to each subtype was performed by FACS and fluorescence imaging methods.
# (§2) Human SSTRx were expressed in the cells by transient transfection. Each SSTR was expressed separately, creating five different cell lines using human gene transcript.
# (§3) The transfection process is illustrated in FIG. 1. The transient transfection process was carried out before each experiment. Briefly, HEK cells were cultured in standard cell growth conditions. For testing, the cells were transferred into 96-well plates. The tested compounds were dissolved in DMSO and then diluted in a buffer solution to a final DMSO concentration of 5% as a composition according to the teachings herein. Various amounts of the thus-prepared compositions were added to the cells in medium in the 96-well plates and allowed to incubate for between 1 and 24 hours. Binding was determined using fluorescent microscopy and FACS.
# (§4) Qualitative assessment of binding efficiency was done by visual inspection and digital photography using an inverted fluorescent microscope. Quantitative assessment was done using FACS.
# (§5) HEK-293 cells (human embryonic kidney) were grown in Dulbecco's modified Eagle's medium (DMEM) supplemented with 4 mM glutamine, 10% fetal bovine serum (FBS) and 100 units/ml penicillin/streptomycin at 37° C./5% carbon dioxide. One day prior to transfection, the cells were trypsinized, counted and plated at a density of 3×10^5 per 35 mm diameter dish. Until 70% confluency, cells were transiently transfected with the pcDNA 3.1 vector bearing the coding region for the human SSTR human somatostatin receptor subtypes SSTR1-SSTR5. Transfections were carried out with JetPei transfection reagent (Polyplus-transfection, NY, USA) according to the manufacturer's recommendation. Briefly, 2 micrograms of plasmid DNA and 6 microliter of JetPei transfection reagent were used for each transfection. Each of the components were resuspended in 100 microliter of 150 mM NaCl, mixed and incubated for 25 minutes at room temperature and after incubation added to cells.
# (§6) Cells were then seeded in a 96-well flat-bottom microplate (Costar, Corning, N.Y.) at a concentration of 5×10^4 cells/well. Twelve hours later, the supernatant was removed and replaced with fresh DMEM containing various (in the nM range) concentrations of tested compounds 1-16. The cells were incubated for additional time intervals ranging from 0.5-24 hr. At the end of the incubation period, supernatant was discarded and the cells were washed twice with cold PBS. The plates were examined using IX81 inverted microscope (Olympus, Japan) equipped with […] digital camera. Additionally, a FACS assay was used for quantitative analysis.
# (§7) Quantitative assessment of binding affinity of Compounds 1-16 was performed by FACS in the transfected HEK cell model.
# (§8) Quantitatively, specific binding affinity was assessed as the percentage of double stained [(GR=green and red indicating transfection)/(R is total red) less (G is green indicating unspecific binding)]: specific binding affinity=[GR/R−G]
# human SSTR4 = molecular target: T2, human SSTR4 (Homo sapiens, UniProt P31391); assay: Binding to transfected HEK cells expressing a single SSTRx subtype, FACS
# T2 construct: expressed in transfected cells; host or cells: HEK-293, transient transfection, pcDNA 3.1
# T2 sequence (P31391 whole entry): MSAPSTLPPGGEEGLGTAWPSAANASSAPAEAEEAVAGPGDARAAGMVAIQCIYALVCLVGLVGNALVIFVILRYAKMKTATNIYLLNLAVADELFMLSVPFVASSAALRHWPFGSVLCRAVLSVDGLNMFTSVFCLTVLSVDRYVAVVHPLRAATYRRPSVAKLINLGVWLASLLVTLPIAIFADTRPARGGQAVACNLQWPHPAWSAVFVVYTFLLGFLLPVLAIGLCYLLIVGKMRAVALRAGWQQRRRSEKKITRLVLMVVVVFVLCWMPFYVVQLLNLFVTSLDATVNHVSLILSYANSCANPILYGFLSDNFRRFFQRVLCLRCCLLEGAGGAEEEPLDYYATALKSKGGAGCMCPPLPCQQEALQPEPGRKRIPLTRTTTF
# Experimental: as §1, §2, §3, §4, §5, §6, §7, §8
# PANC-1 tumors = assay: In vivo biodistribution in PANC-1 xenograft mice, Maestro fluorescence imaging of harvested tissue; conditions: 1 day after administration, tissues as named in the value
# Experimental: Five different pharmaceutical compositions were prepared, each by dissolving 1 mg of a different Somatostatin receptor ligand in 1 liter PBS.
# Solid human-derived tumors were induced in 15 nude mice by subcutaneous injection of a suspension containing ˜5□10^5 human cancer cells (PANC-1) into the flank area of the mice.
# 2-3 weeks after the injection of the cancer cells, it was observed that the mice developed solid tumors with diameters of approximately 5-10 mm.
# 0.3 ml of each one of the five pharmaceutical compositions were systemically administered to three of the fifteen xenograft mice by injection into the tail vein using a 30 G needle.
# The fifteen mice were sacrificed and from the bodies tumors, pancreas, spleen, kidney and liver were harvested.
# The fluorescence of the harvested tissue was determined using the Maestro™ in vivo fluorescence imaging system (Cambridge Research & Instrumentation, Inc., Woburn, Mass., USA).
# BON1 tumor = assay: In vivo bio-distribution by fluorescence imaging in mice bearing BON1 tumor; parameters: species or system nude mice; conditions: 10 mg/kg IV
# Experimental: Pharmacokinetics and bio-distribution of some of the compounds was studied in mouse xenograft models for human cancer. Four pharmaceutical compositions according to the teachings herein, each comprising a single compound according to the teachings herein, were administered intravenously (IV) into lateral tail vein of nude mice bearing BON1 or H116 tumors. Animals were sacrificed at 1, 3, 6 and 24 hours after injection and tumor and normal tissues were excised. Tissue bio-distribution of the compounds were studied using fluorescence imaging techniques.
# Experiments were started 7-10 days after the injection, when the tumor diameter was approximately 5-10 mm. […]
# Whole-body fluorescence imaging, low-magnification fluorescence microscopy and cellular level fluorescence microscopy methods were used to study tissue biodistribution of the compounds. For these purposes, SZX-12 fluorescence microscope (Olympus, Japan), IX81 inverted fluorescence microscope (Olympus, Japan) equipped with appropriate filter-cubes and digital color camera (DP71, Olympus) were used. Additionally, whole-body fluorescence imaging was performed by WB imaging system (Prizmatix, Israel). Quantitative spectrally-resolved fluorescence imaging was carried out using a spectral imaging (SI) system (SD300, Applied Spectral Imaging, Migdal Ha'Emek, Israel). […]
# [1] = FACS, transfected HEK, specific binding affinity = percentage double stained [GR/R−G], 0 = no binding detected
# [2] = Table 2 normalized according to the highest binding affinity of that compound
# [3] = Table 2 normalized to Compound 1 (=100)
compound,measurement,setting,value
DPhe-Cys*-Phe-DTrp-Lys-Thr-Cys*-Throl [Octreotide],Affinity of binding to the SSTRx (in words),SSTR1-SSTR5,"high-affinity binding to SSTR2, moderate affinity binding to SSTRR3 and SSTR5, and almost no affinity binding to SSTR1 and SSTR4"
"CC(=O)NCCCC[C@@H]1NC(=O)[C@@H](Cc2c[nH]c3ccccc23)NC(=O)[C@H](Cc2c[nH]c3ccccc23)NC(=O)[C@H](Cc2ccccc2)NC(=O)[C@@H](NC(=O)[C@@H](Cc2ccccc2)NC(=O)CCCNC(=S)Nc2ccc3c(c2)C(=O)OC32c3ccc(O)cc3Oc3cc(O)ccc32)CSSCCN(CC(N)=O)C(=O)[C@H](Cc2ccccc2)NC(=O)[C@H]([C@@H](C)O)NC1=O [Compound 14, FITC-GABA-D-Phe-Cys-Phe-Trp-D-Trp-LysAc-Thr-Phe-GlyS2]",Relative binding affinity SSTR5,human SSTR5; [1],2
same,Adjusted binding affinity SSTR5,human SSTR5; [2],0.67
same,Binding affinity to SSTR5 relative to Compound 1,human SSTR5; [3],7
same,Relative binding affinity SSTR4,human SSTR4; [1],3
same,Adjusted binding affinity SSTR4,human SSTR4; [2],1
same,Binding affinity to SSTR4 relative to Compound 1,human SSTR4; [3],13
"C[C@@H](O)[C@@H]1NC(=O)[C@H](CCCCN)NC(=O)[C@@H](Cc2c[nH]c3ccccc23)NC(=O)[C@H](Cc2c[nH]c3ccccc23)NC(=O)[C@H](Cc2ccccc2)NC(=O)[C@@H](NC(=O)[C@@H](Cc2ccccc2)NC(=O)CCCNC(=S)Nc2ccc3c(c2)C(=O)OC32c3ccc(O)cc3Oc3cc(O)ccc32)CSSCCN(CC(N)=O)C(=O)[C@H](Cc2ccccc2)NC1=O [Compound 1, FITC-GABA-DPhe-Cys*-Phe-Trp-DTrp-Lys-Thr-Phe-GlyS2*-NH2, reference compound]",Intensity in healthy tissue (in words),PANC-1 tumors,undetectable in liver tissue
"C[C@@H](O)[C@@H]1NC(=O)[C@H](CCCN)NC(=O)[C@@H](Cc2c[nH]c3ccccc23)NC(=O)[C@H](Cc2c[nH]c3ccccc23)NC(=O)[C@H](Cc2ccccc2)NC(=O)[C@@H](NC(=O)[C@@H](Cc2ccccc2)NC(=O)CCCNC(=S)Nc2ccc3c(c2)C(=O)OC32c3ccc(O)cc3Oc3cc(O)ccc32)CSSCCN(CC(N)=O)C(=O)[C@H](Cc2ccccc2)NC1=O [Compound 3, FITC-GABA-D-Phe-Cys-Phe-Trp-D-Trp-Orn-Thr-Phe-GlyS2]",Time of maximal fluorescence signal in all tissues after administration,"BON1 tumor; spleen, pancreas and tumor, FIG. 10",6 h
same,Intensity in healthy tissue (in words),PANC-1 tumors,"undetectable in spleen, kidney and liver tissue"
"CC(C)[C@@H]1NC(=O)[C@H](CCCCN)NC(=O)[C@@H](Cc2c[nH]c3ccccc23)NC(=O)[C@H](Cc2ccc(O)cc2)NC(=O)[C@@H](NC(=O)[C@H](N)Cc2ccc3ccccc3c2)CSSC[C@@H](C(=O)N[C@H](C(N)=O)[C@@H](C)O)NC1=O [Lanreotide, Napht-Cys*-Tyr-Trp-Lys-Val-Cys*-Thr]",Affinity of binding to the SSTRx (in words),SSTR1-SSTR5,"high-affinity binding to SSTR2, moderate affinity binding to SSTRR3 and SSTR5, and almost no affinity binding to SSTR1 and SSTR4"
"C[C@@H](O)[C@@H]1NC(=O)[C@H](CCCCN)NC(=O)[C@@H](Cc2c[nH]c3ccccc23)NC(=O)[C@H](Cc2c[nH]c3ccccc23)NC(=O)[C@H](Cc2ccc(O)cc2)NC(=O)[C@@H](NC(=O)[C@@H](Cc2ccccc2)NC(=O)CCCNC(=S)Nc2ccc3c(c2)C(=O)OC32c3ccc(O)cc3Oc3cc(O)ccc32)CSSCCN(CC(N)=O)C(=O)[C@H](Cc2ccccc2)NC1=O [Compound 4, FITC-GABA-D-Phe-Cys-Tyr-Trp-D-Trp-Lys-Thr-Phe-GlyS2] ({FITC-GABA}-[dF]CYW[dW]KTF[N(2-mercaptoethyl)Gly]-NH2; disulfide 2-9)","Pattern of bio-distribution, order of fluorescence in tissue samples","BON1 tumor; fluorescence microscopy, 24 hrs after administration",tumor>spleen>pancreas>kidney>liver
"C[C@@H](O)[C@@H]1NC(=O)[C@H](CCCCN)NC(=O)[C@@H](Cc2c[nH]c3ccccc23)NC(=O)[C@H](Cc2ccccc2)NC(=O)[C@@H](NC(=O)[C@H](CCCNC(=N)N)NC(=O)[C@@H](Cc2ccccc2)NC(=O)CCCNC(=S)Nc2ccc3c(c2)C(=O)OC32c3ccc(O)cc3Oc3cc(O)ccc32)CSSCCN(CC(N)=O)C(=O)[C@H](Cc2ccccc2)NC1=O [Compound 2, FITC-GABA-D-Phe-Arg-Cys-Phe-D-Trp-Lys-Thr-Phe-GlyS2] ({FITC-GABA}-[dF]RCF[dW]KTF[N(2-mercaptoethyl)Gly]-NH2; disulfide 3-9)",Intensity in healthy tissue (in words),PANC-1 tumors,"undetectable in spleen, kidney and liver tissue"
